Source: ChEMBL document CHEMBL1145005 (J Med Chem, 2003)
Each block holds one molecule with its values, some of them ahead of it.

Legend:
[1] = Log D value at pH 7.4; format: physicochemical; conditions: buffer
[2] = Partition coefficient (logP); format: physicochemical; conditions: octanol/water
[3] = Log P / Log D value was determined; format: physicochemical; conditions: octanol/water
[4] = Oral bioavailability in rat; format: ADME, organism-based; conditions: in vivo, read-out: Bioavailability_oral
[5] = Plasma t1/2 of compound was determined in diabetic rat; format: ADME, organism-based
[6] = Maximum concentration of drug in plasma was determined at 2 mg/kg orally; format: ADME, organism-based; parameters: dose 2 mg/kg, route oral; conditions: in vivo, po
Rattus norvegicus [7] = assay: Effective dose to inhibit aldose reductase activity by normalizing the elevated lens fructose levels in sciatic nerve of chronically diabetic rat orally; format: functional; conditions: po
Rattus norvegicus [8] = assay: Effective dose to inhibit aldose reductase activity by normalizing the elevated lens sorbitol levels in sciatic nerve of chronically diabetic rat orally; format: functional; conditions: po
[9] = target: Aldo-keto reductase family 1 member B1 (Homo sapiens, UniProt P15121); assay: Inhibition of human recombinant Aldose reductase […]
Rattus norvegicus [10] = assay: Aldose reductase inhibition activity in vivo by normalizing the elevated nerve fructose levels in sciatic nerve of acutely diabetic rat at 20 mg/kg; format: functional
Rattus norvegicus [11] = assay: Aldose reductase inhibition activity in vivo by normalizing the elevated nerve sorbitol levels in sciatic nerve of acutely diabetic rat at 20 mg/kg; format: functional
Rattus norvegicus [12] = assay: Aldose reductase inhibition activity in vivo by normalizing the elevated nerve fructose levels in sciatic nerve of acutely diabetic rat at 10 mg/kg; format: functional
Rattus norvegicus [13] = assay: Aldose reductase inhibition activity in vivo by normalizing the elevated nerve sorbitol levels in sciatic nerve of acutely diabetic rat at 10 mg/kg; format: functional
Rattus norvegicus [14] = species on record: Rattus norvegicus; assay: Effective dose to inhibit aldose reductase activity by normalizing the elevated nerve fructose levels in sciatic nerve of chronically diabetic rat
Rattus norvegicus [15] = species on record: Rattus norvegicus; assay: Effective dose to inhibit aldose reductase activity by normalizing the elevated nerve sorbitol levels in sciatic nerve of chronically diabetic rat
[16] = pKa value of compound was determined; format: physicochemical
Rattus norvegicus [17] = assay: Aldose reductase inhibition activity in vivo by normalizing the elevated nerve fructose levels in sciatic nerve of acutely diabetic rat at 300 mg/kg; format: functional
Rattus norvegicus [18] = assay: Aldose reductase inhibition activity in vivo by normalizing the elevated nerve sorbitol levels in sciatic nerve of acutely diabetic rat at 300 mg/kg; format: functional
[19] = Dissociation constant was determined; format: physicochemical
Rattus norvegicus [20] = assay: Aldose reductase inhibition activity in vivo by normalizing the elevated lens sorbitol levels in sciatic nerve of acutely diabetic rat at 20 mg/kg; conditions: read-out: Inhibition

- logD [1]: 2.46
- logP [2]: 3.05
- Log P/Log D [3]: 0.81
- bioavailability [4]: 98%
- half-life [5]: 26 h
- Cmax [6]: 9000 ng/mL
- IC50 [9]: 0.84 nM
SMILES: Cc1c(S(=O)(=O)c2ccc(=O)[nH]n2)oc2ccc(Cl)cc12
- ED90 (Rattus norvegicus [7]): 3 mg/kg
- ED90 (Rattus norvegicus [8]): 0.8 mg/kg

- IC50 [9]: 150 nM
SMILES: O=c1ccc(S(=O)(=O)c2cc3ccccc3o2)n[nH]1

- IC50 [9]: 140 nM
SMILES: O=c1ccc(S(=O)(=O)c2ccc(Br)cc2F)n[nH]1

- IC50 [9]: 5000 nM
SMILES: O=c1ccc(S(=O)(=O)c2cc3ccccc3[nH]2)n[nH]1

- IC50 [9]: 1900 nM
SMILES: Cc1ccc(S(=O)(=O)c2ccc(O)nn2)cc1

- IC50 [9]: 170 nM
SMILES: O=c1ccc(S(=O)(=O)c2ccccc2Cl)n[nH]1
- inhibition in vivo at 20 mg/kg (Rattus norvegicus [10]): 68%
- inhibition in vivo at 20 mg/kg (Rattus norvegicus [11]): 96%

- IC50 [9]: 2200 nM
SMILES: O=S(=O)(c1ccc(O)nn1)c1ccccc1-c1ccccc1

- IC50 [9]: 450 nM
SMILES: O=S(=O)(c1ccc(O)nn1)c1nc2ccccc2s1

- IC50 [9]: 150 nM
SMILES: O=c1ccc(S(=O)(=O)c2cc3ccccc3s2)n[nH]1

- IC50 [9]: 280 nM
SMILES: O=c1ccc(S(=O)(=O)c2ccc(F)cc2Cl)n[nH]1
- inhibition in vivo at 10 mg/kg (Rattus norvegicus [12]): 46%
- inhibition in vivo at 10 mg/kg (Rattus norvegicus [13]): 91%

- IC50 [9]: 190 nM
SMILES: O=c1ccc(S(=O)(=O)c2ccc(Cl)cc2Cl)n[nH]1
- inhibition in vivo at 10 mg/kg (Rattus norvegicus [12]): 73%
- inhibition in vivo at 10 mg/kg (Rattus norvegicus [13]): 95%
- ED90 (Rattus norvegicus [14]): 20 mg/kg
- ED90 (Rattus norvegicus [15]): 5 mg/kg

- IC50 [9]: 210 nM
SMILES: O=c1ccc(S(=O)(=O)c2ccccc2Br)n[nH]1

- IC50 [9]: 2000 nM
SMILES: COc1ccc(S(=O)(=O)c2ccc(=O)[nH]n2)cc1

- pKa [16]: 7.1
- IC50 [9]: 600 nM
SMILES: O=S(=O)(c1ccccc1)c1ccc(O)nn1
- inhibition in vivo at 300 mg/kg (Rattus norvegicus [17]): 89%
- inhibition in vivo at 300 mg/kg (Rattus norvegicus [18]): 95%

- pKa [19]: > 8
SMILES: O=C1NC(=O)[C@@]2(CCOc3ccc(F)cc32)N1 [SORBINIL]

- pKa [16]: 3
SMILES: O=C(O)Cc1nn(Cc2nc3cc(C(F)(F)F)ccc3s2)c(=O)c2ccccc12 [ZOPOLRESTAT]
- inhibition in vivo at 20 mg/kg (Rattus norvegicus [20]): 41%
- ED90 (Rattus norvegicus [14]): 40 mg/kg
- ED90 (Rattus norvegicus [15]): 10 mg/kg
